Results from PMC10344891, “Continuous enzyme activity assay for high-throughput classification of histone deacetylase 8 inhibitors” (Exploration of Targeted Anti-tumor Therapy, 2023).
Counter-ions that a name gives are not always drawn. Like-named read-outs stand apart in the source and are kept apart here.

How the values were obtained:
human KDAC8 [1] = molecular target: T1, human KDAC8 (Homo sapiens, UniProt Q9BY41); test: Michaelis-Menten kinetics with the continuous KDAC8 assay; type: biochemical; design: full-length human KDAC8 was produced in E. coli BL21 (DE3); His6-SUMO (N, cleaved yes); made in house; host or cells: E. coli BL21 (DE3), pET14b vector; conditions: n = 3
T1 sequence (Q9BY41 1-377): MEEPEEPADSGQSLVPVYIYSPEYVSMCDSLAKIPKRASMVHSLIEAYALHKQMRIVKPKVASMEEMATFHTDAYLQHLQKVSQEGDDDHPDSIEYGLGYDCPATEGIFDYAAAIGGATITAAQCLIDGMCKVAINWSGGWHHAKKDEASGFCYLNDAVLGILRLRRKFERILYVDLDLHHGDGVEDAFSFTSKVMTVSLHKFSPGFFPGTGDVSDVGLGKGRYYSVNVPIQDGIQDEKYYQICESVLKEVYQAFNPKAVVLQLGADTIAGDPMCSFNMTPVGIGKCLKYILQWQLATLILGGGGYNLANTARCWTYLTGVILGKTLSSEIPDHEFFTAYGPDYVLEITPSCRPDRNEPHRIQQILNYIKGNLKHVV
Description: The measurements were carried out in a black 96-well microtiter plate (Greiner) at 30°C in assay buffer (see above). A serial two-fold dilution ranging from 50 µmol/L substrate, Boc-Lys(TFA)-AMC (Bachem), to 780 nmol/L, was prepared in an assay buffer containing 0.1 mg/mL trypsin. The enzymatic reaction was initiated by the addition of 10 nmol/L KDAC8. […] The data points were plotted against time and blank corrected. For the determination of Michaelis-Menten parameters, a linear regression analysis of the initial slope (vi) of each curve was performed. Slopes were transformed into rates of AMC product formation using a calibration curve with different AMC concentrations. The obtained enzyme conversion rates were plotted against the respective substrate concentration and fitted to the Michaelis-Menten function using GraphPad Prism software. The turnover number (kcat) was calculated as
where vi is the substrate conversion rate and E is the enzyme concentration. All solutions were pre-incubated at 30°C.

human KDAC8 [2] = molecular target: T1, human KDAC8; test: Progress curves of continuous KDAC8 assay: relative KDAC8 activity after 5,000 s (stabilization curves); conditions: ratio of late-stage to early-stage slopes, normalized to free KDAC8
Description: The measurements were carried out in a black 96-well half-area microtiter plate (Greiner) at 30°C in assay buffer (see above). The respective ligand was diluted in Master Mix (see above) and binding kinetics were initiated by the addition of 10 nmol/L KDAC8. […] All solutions were pre-incubated at 30°C. Slopes were calculated for the early-stage (1,000 s to 2,000 s) and the late-stage (5,000 s to 6,000 s) using linear regression. The relative KDAC8 activity in the presence of different inhibitor concentrations was calculated as the ratio of the late-stage and early-stage slopes and normalized to free KDAC8 enzyme.

trypsin = test: Trypsin inhibition counter-assay (Bz-Arg-PNA); type: biochemical; conditions: 0.1 mg/mL trypsin, 400 µmol/L Bz-Arg-PNA, any applied concentration
Description: where EA stands for the enzyme activity at a given ligand concentration x, Emax and E0 are the enzyme activities without ligand and under complete inhibition, respectively. IC50 is the ligand concentration at which half of the enzyme activity is inhibited and h is a measure of the steepness of the dose-response curve. […] All solutions were pre-incubated at 30°C. The two-step IC50 determination has been described previously. In short: KDAC8 was incubated with the respective ligands, and the enzymatic reaction was started by the addition of 20 µmol/L Boc-Lys(TFA)-AMC substrate (Bachem). […]. In this endpoint assay, the fluorescence signal was correlated to […] and normalized with a positive control without ligand. Data analysis was performed as described above. For IC50 determination due to trypsin inhibition, the basic IC50 procedure was identical. In the assay 0.1 mg/mL trypsin and 400 µmol/L Bz-Arg-PNA (Bachem) were used. The change in substrate absorbance was recorded in a microplate reader (Spark®, Tecan) at 405 nm. In this endpoint assay, the absorbance signal was correlated to […] and normalized with a positive control without ligand. Data analysis was performed as described above.

human KDAC8 [3] = molecular target: T1, human KDAC8; test: Two-step endpoint KDAC8 activity assay, IC50 determination; type: biochemical; design: full-length human KDAC8 was produced in E. coli BL21 (DE3); His6-SUMO (N, cleaved yes); made in house; host or cells: E. coli BL21 (DE3), pET14b vector; conditions: 20 µmol/L Boc-Lys(TFA)-AMC, stopped with SATFMK, trypsin development, n = 3
human KDAC8 [4] = molecular target: T1, human KDAC8; test: Continuous (one-step) KDAC8 enzyme activity assay, IC50 determination; type: biochemical; design: full-length human KDAC8 was produced in E. coli BL21 (DE3); His6-SUMO (N, cleaved yes); made in house; host or cells: E. coli BL21 (DE3), pET14b vector; conditions: for IC50: 10 nmol/L KDAC8, 60 min pre-incubation at 30°C, 20 µmol/L Boc-Lys(TFA)-AMC, 0.1 mg/mL trypsin, mean ± SD, n = 3; for Inhibition mode: classification of mode of action on KDAC8; for Time-dependence of IC50 values: pre-incubation times 5 min to 60 min, 100 nmol/L KDAC8
human KDAC8 [5] = molecular target: T1, human KDAC8; test: Thermal shift assay (SYPRO orange melting curves); type: binding; design: full-length human KDAC8 was produced in E. coli BL21 (DE3); His6-SUMO (N, cleaved yes); made in house; host or cells: E. coli BL21 (DE3), pET14b vector; conditions: for ΔTm at 100 µM: read-out: ΔTm (thermal stabilization of KDAC8)
Description: By utilizing a QuantStudio™ 5 real-time quantitative polymerase chain reaction (qPCR) system (Thermo Fisher Scientific), protein melting curves with SYPRO® orange as fluorescence dye were generated. […] A DMSO control without ligand was utilized as a positive control. After mixing the components, the samples were incubated at 30°C for 1 h in the real-time qPCR system to assure binding equilibrium. […] The fluorescence signal was plotted against the temperature. The melting point was calculated as the point of inflection of the first derivative using protein thermal shift software (Thermo Fisher Scientific).

KDAC11 = conditions: cited from earlier work
[6] = 100 µmol/L inhibitor, 12 µmol/L KDAC8, 1 h at 30°C before melting

Row | SMILES | Km (human KDAC8 [1]; assay buffer (low salt), 10 nmol/L KDAC8, 30°C) [µM] | kcat (human KDAC8 [1]; assay buffer) [s⁻¹] | Stabilization of KDAC8 activity (relative KDAC8 activity after 5,000 s vs free enzyme) (human KDAC8 [2]) | Effect on trypsin activity (trypsin) | IC50 (human KDAC8 [3]) [nM] | IC50 (human KDAC8 [4]) [nM] | Inhibition mode (human KDAC8 [4]) | Time-dependence of IC50 values (human KDAC8 [4]) | ΔTm (thermal stabilization of KDAC8) (human KDAC8 [5]; [6]) [°C] | ΔTm at 100 µM (human KDAC8 [5]; [6]) [°C] | Time to establish binding equilibrium with KDAC8 (human KDAC8 [4]; deduced from unchanged IC50 at shortest pre-incubation time) | ΔTm at 100 µM (human KDAC8 [5]) [°C] | Stabilization of KDAC11 (KDAC11)
1 | Cc1cc(=O)oc2cc(NC(=O)[C@H](CCCCNC(=O)C(F)(F)F)NC(=O)OC(C)(C)C)ccc12 [Boc-Lys(TFA)-AMC, tert-butyl N-[(1S)-1-[(4-methyl-2-oxo-chromen-7-yl)carbamoyl]-5-[(2,2,2-trifluoroacetyl)amino]pentyl]carbamate] | 8.9 ± 1.6 | 0.034 ± 0.002 | – | – | – | – | – | – | – | – | – | – | –
2 | CCN1C(=O)C=CC1=O [NEM, N-ethylmaleimide] | – | – | do not preserve the relative KDAC8 activity | no effect against trypsin | 780 ± 180 | 320 ± 90 | Covalent inactivation | significant changes in IC50-values over time | 4.58 ± 0.26 | 4 to 5 | – | – | –
3 | O=C(CCCCCCC(=O)Nc1ccccc1)NO [SAHA, suberoylanilide hydroxamic acid] | – | – | – | – | – | – | Fast reversible binding | no time-dependent change in IC50-values | – | – | less than 5 min | 8.5 ± 0.06 | capable of stabilizing KDAC11
4 | O=[N+]([O-])c1ccc(CCS(=O)(=O)c2nc(Cl)ns2)cc1 [TJ-19-29, 3-chloro-5-[2-(4-nitrophenyl)ethanesulfonyl]-1,2,4-thiadiazole] | – | – | do not preserve the relative KDAC8 activity | no effect against trypsin | 120 ± 40 | 30 ± 9 | Covalent inactivation | – | 4.4 ± 0.3 | 4 to 5 | – | – | –
5 | CC(/C=C/C(=O)NO)=C\[C@H](C)C(=O)c1ccc(N(C)C)cc1 [TSA, trichostatin A] | – | – | – | – | – | – | Fast reversible binding | – | – | – | – | 11.96 ± 0.06 | –
